Laboratory results: publication PMC5983452 (PLoS ONE, 2018)
Where a name gives a salt, the structure may show the parent alone. Read-outs that look alike come from different tables or passages of the source.

Tested on: panel of 240 cancer cell lines
Experiment: Proliferation in a broad panel of 240 cancer cell lines, 2D culture (Eurofins Panlabs Oncopanel)
Type: cell-based
Settings: read-out: IC50
Procedure: Cell lines used in these experiments were obtained from the following sources and were cultured according to conditions specified by the respective cell banks. […] The cell lines listed above were tested for mycoplasma and were negative. Cells were authenticated by STR method or vendor protocols. All 313 cell lines in the CRIPSR pooled screen were purchased from commercial vendors and were STR authenticated and mycoplasma negative. A broad panel of cancer cell lines was screened in the Eurofins Oncopanel. All cells in this panel were mycoplasma negative and STR verified.

In the case of NC1CCC(S(=O)(=O)N2C3CCC2CC(NC(=O)c2cc(C4CC4)on2)C3)CC1 [EPZ028862, N-((1R,3R,5S)-8-((1r,4R)-4-aminocyclohexylsulfonyl)-8-aza-bicyclo[3.2.1]octan-3-yl)-5-cyclopropylisoxazole-3-carboxamide hydrochloride], the IC50 (5637, Bladder) is reported as over 25 µM, the IC50 (A7, Skin) is reported as over 25 µM and the IC50 (AGS, Colon/GI) is reported as over 25 µM. For the same compound, the IC50 (BC-1, Haematopoietic and lymphoid) was over 25 µM, the IC50 (BM-1604, BM-1604, Prostate) was over 25 µM and the IC50 (C32, Skin) was over 25 µM. For the same compound, the IC50 (C32TG, Skin) was over 25 µM, the IC50 (C-4 I, Female GU) was over 25 µM and the IC50 (CEM/C1, CEM-C1, Haematopoietic and lymphoid) was over 25 µM. It also gave an IC50 (CML-T1, CML-T1, Haematopoietic and lymphoid) of over 25 µM, an IC50 (DB, Haematopoietic and lymphoid) of over 25 µM and an IC50 (DK-MG, CNS) of over 25 µM. The IC50 (EB-3, Haematopoietic and lymphoid) was over 25 µM, the IC50 (EM-2, Haematopoietic and lymphoid) was over 25 µM and the IC50 (ES-2, Female GU) was over 25 µM. The IC50 (H4, CNS) was over 25 µM, the IC50 (HLE, Liver) was over 25 µM and the IC50 (HLF, Liver) was over 25 µM. For the same compound, the IC50 (HOS, Soft Tissue) was over 25 µM, the IC50 (HT, Haematopoietic and lymphoid) was over 25 µM and the IC50 (HT-3, Female GU) was over 25 µM. For the same compound, the IC50 (HUH-6-clone5, HUH-6 Clone 5, Liver) was over 25 µM, the IC50 (Homo sapiens, 22Rv1, 22Rv1, Prostate) was over 25 µM and the IC50 (Homo sapiens, 639-V, Bladder) was over 25 µM. The IC50 (Homo sapiens, 647-V, Bladder) was over 25 µM, the IC50 (Homo sapiens, 769-P, Kidney) was over 25 µM and the IC50 (Homo sapiens, 786-0, 786-O, Kidney) was over 25 µM. It also gave an IC50 (Homo sapiens, A101D, Skin) of over 25 µM, an IC50 (Homo sapiens, A 172, A172, CNS) of over 25 µM and an IC50 (Homo sapiens, A204, A204, Soft Tissue) of over 25 µM. It also gave an IC50 (Homo sapiens, A498, A498, Kidney) of over 25 µM, an IC50 (Homo sapiens, A549, A549, Lung) of over 25 µM and an IC50 (Homo sapiens, A673, A-673, Soft Tissue) of over 25 µM. For the same compound, the IC50 (Homo sapiens, A-375, A375, Skin) was over 25 µM, the IC50 (Homo sapiens, A-427, A427, Lung) was over 25 µM and the IC50 (Homo sapiens, A-431, A431, Skin) was over 25 µM. It also gave an IC50 (Homo sapiens, ACHN, Kidney) of over 25 µM, an IC50 (Homo sapiens, AN3-CA, AN3 CA, Female GU) of over 25 µM and an IC50 (Homo sapiens, ARH-77, ARH-77, Haematopoietic and lymphoid) of over 25 µM. For the same compound, the IC50 (Homo sapiens, ASPC1, AsPC-1, Pancreas) was over 25 µM, the IC50 (Homo sapiens, AU565, AU565, Breast) was over 25 µM and the IC50 (Homo sapiens, BE(2)-C, BE(2)C, CNS) was over 25 µM. The IC50 (Homo sapiens, BFTC-905, BFTC-905, Bladder) was over 25 µM, the IC50 (Homo sapiens, BHT-101, BHT-101, Endocrine) was over 25 µM and the IC50 (Homo sapiens, BPH-1, BPH1, Prostate) was over 25 µM. The IC50 (Homo sapiens, BT-20, BT20, Breast) was over 25 µM, the IC50 (Homo sapiens, BT-474, BT474, Breast) was over 25 µM and the IC50 (Homo sapiens, BT-549, BT-549, Breast) was over 25 µM. For the same compound, the IC50 (Homo sapiens, BV-173, BV-173, Haematopoietic and lymphoid) was over 25 µM, the IC50 (Homo sapiens, BXPC-3, BxPC-3, Pancreas) was over 25 µM and the IC50 (Homo sapiens, BeWo, Female GU) was over 25 µM. It also gave an IC50 (Homo sapiens, C-4-II, C-4 II, Female GU) of over 25 µM, an IC50 (Homo sapiens, C-33-A, C-33A, Female GU) of over 25 µM and an IC50 (Homo sapiens, CAKI-1, Caki-1, Kidney) of over 25 µM. The IC50 (Homo sapiens, CAKI-2, Caki-2, Kidney) was over 25 µM, the IC50 (Homo sapiens, CAL-27, Cal 27, Head and Neck) was over 25 µM and the IC50 (Homo sapiens, CAL-62, CAL-62, Endocrine) was over 25 µM. For the same compound, the IC50 (Homo sapiens, CAMA-1, CAMA-1, Breast) was over 25 µM, the IC50 (Homo sapiens, CAPAN-1, Capan-1, Pancreas) was over 25 µM and the IC50 (Homo sapiens, CCF-STTG1, CCF-STTG1, CNS) was over 25 µM. For the same compound, the IC50 (Homo sapiens, CCRF-CEM, CCRFCEM, Haematopoietic and lymphoid) was over 25 µM, the IC50 (Homo sapiens, CFPAC-1, CFPAC-1, Pancreas) was over 25 µM and the IC50 (Homo sapiens, CGTH-W-1, CGTH-W-1, Endocrine) was over 25 µM. The IC50 (Homo sapiens, CHL-1, CHL-1, Skin) was over 25 µM, the IC50 (Homo sapiens, CHP-212, CHP-212, CNS) was over 25 µM and the IC50 (Homo sapiens, COLO 201, Colo 201, Colon/GI) was over 25 µM. For the same compound, the IC50 (Homo sapiens, COLO 205, Colo 205, Colon/GI) was over 25 µM, the IC50 (Homo sapiens, COLO 320DM, Colon/GI) was over 25 µM and the IC50 (Homo sapiens, COLO-320-HSR, Colo 320 HSR, Colon/GI) was over 25 µM. The IC50 (Homo sapiens, COLO-829, COLO 829, Skin) was over 25 µM, the IC50 (Homo sapiens, COR-L23, COR-L23, Lung) was over 25 µM and the IC50 (Homo sapiens, COR-L105, COR-L105, Lung) was over 25 µM. The IC50 (Homo sapiens, CRO-AP2, CRO-AP2, Haematopoietic and lymphoid) was over 25 µM, the IC50 (Homo sapiens, Calu-1, Calu1, Lung) was over 25 µM and the IC50 (Homo sapiens, Calu-6, Calu6, Lung) was over 25 µM. For the same compound, the IC50 (Homo sapiens, Caov-3, CaOV3, Female GU) was over 25 µM, the IC50 (Homo sapiens, Capan-2, Capan-2, Pancreas) was over 25 µM and the IC50 (Homo sapiens, ChaGo-K-1, ChaGoK1, Lung) was over 25 µM. The IC50 (Homo sapiens, D283 Med, CNS) was over 25 µM, the IC50 (Homo sapiens, DBTRG-05MG, CNS) was over 25 µM and the IC50 (Homo sapiens, DLD-1, DLD-1, Colon/GI) was over 25 µM. It also gave an IC50 (Homo sapiens, DMS-53, DMS53, Lung) of over 25 µM, an IC50 (Homo sapiens, DMS-114, DMS114, Lung) of over 25 µM and an IC50 (Homo sapiens, DMS-273, DMS273, Lung) of over 25 µM. For the same compound, the IC50 (Homo sapiens, DOHH-2, DOHH-2, Haematopoietic and lymphoid) was 8.66 µM, the IC50 (Homo sapiens, DU-145, DU145, Prostate) was over 25 µM and the IC50 (Homo sapiens, Daoy, CNS) was over 25 µM. It also gave an IC50 (Homo sapiens, Daudi, Haematopoietic and lymphoid) of over 25 µM, an IC50 (Homo sapiens, Detroit 562, Detroit 562, Head and Neck) of over 25 µM and an IC50 (Homo sapiens, DoTc2-4510, DoTc2 4510, Female GU) of over 25 µM. The IC50 (Homo sapiens, EFM-19, EFM-19, Breast) was over 25 µM, the IC50 (Homo sapiens, FaDu, Head and Neck) was over 25 µM and the IC50 (Homo sapiens, G-401, G-401, Kidney) was over 25 µM. It also gave an IC50 (Homo sapiens, G-402, G-402, Kidney) of over 25 µM, an IC50 (Homo sapiens, HCT-8, HCT-8, Colon/GI) of over 25 µM and an IC50 (Homo sapiens, HCT-15, HCT-15, Colon/GI) of over 25 µM. For the same compound, the IC50 (Homo sapiens, HCT-116, HCT-116, Colon/GI) was over 25 µM, the IC50 (Homo sapiens, HEC-1-A, Female GU) was over 25 µM and the IC50 (Homo sapiens, HEL 92.1.7, HEL-92-1-7, Haematopoietic and lymphoid) was over 25 µM. For the same compound, the IC50 (Homo sapiens, HMCB, Skin) was over 25 µM, the IC50 (Homo sapiens, HPAF-II, Pancreas) was over 25 µM and the IC50 (Homo sapiens, HT1197, HT-1197, Bladder) was over 25 µM. For the same compound, the IC50 (Homo sapiens, HT-29, HT-29, Colon/GI) was over 25 µM, the IC50 (Homo sapiens, HT-1080, HT-1080, Soft Tissue) was over 25 µM and the IC50 (Homo sapiens, HT-1376, HT1376, Bladder) was over 25 µM. For the same compound, the IC50 (Homo sapiens, HeLa, Female GU) was over 25 µM, the IC50 (Homo sapiens, HepG2, HepG2, Liver) was over 25 µM and the IC50 (Homo sapiens, Hs 294T, Skin) was over 25 µM. It also gave an IC50 (Homo sapiens, Hs 695T, Skin) of over 25 µM, an IC50 (Homo sapiens, Hs746T, HS 746T, Colon/GI) of over 25 µM and an IC50 (Homo sapiens, Hs-578T, Hs 578T, Breast) of over 25 µM. For the same compound, the IC50 (Homo sapiens, HuCCT-1, HuCCT1, Liver) was over 25 µM, the IC50 (Homo sapiens, HuP-T4, HuP-T4, Pancreas) was over 25 µM and the IC50 (Homo sapiens, J-RT3-T3-5, J-RT3-T3-5, Haematopoietic and lymphoid) was over 25 µM. It also gave an IC50 (Homo sapiens, JEG-3, JEG-3, Female GU) of over 25 µM, an IC50 (Homo sapiens, Jurkat, Haematopoietic and lymphoid) of over 25 µM and an IC50 (Homo sapiens, K562, K562, Haematopoietic and lymphoid) of over 25 µM. It also gave an IC50 (Homo sapiens, KATO III, Colon/GI) of over 25 µM, an IC50 (Homo sapiens, L-428, L-428, Haematopoietic and lymphoid) of over 25 µM and an IC50 (Homo sapiens, LNCaP, Prostate) of over 25 µM.
